In article PMC5381078, “Carboxylate derivatives of tributyltin (IV) complexes as anticancer and antileishmanial agents” (DARU Journal of Pharmaceutical Sciences, 2017):

Legend:
[1] = tested on: promastigotes of Leishmania tropica kwh 23; assay: Antileishmanial activity (MTT assay); assay type: cell-based; details: 72 h; for Antileishmanial % growth inhibition (mortality, lethality): 20 μg/mL; for Antileishmanial LC50: MTT
Experimental: Antileishmanial activity against the promastigotes of Leishmania tropica kwh 23 was evaluated by a quantitative colorimetric assay using 3-(4,5-dimethylthiazol-2-yl)-2, 5-diphenyl tetrazolium bromide (MTT) with minor modifications. […] […] Negative control wells contained 1% DMSO in PBS. All samples were run in triplicate. Afterwards, plates were incubated for 4 h at 24 °C with 20 μL of MTT (4 mg/mL in distilled water) to determine the cell viability. Supernatant from each well was carefully removed leaving behind formazan crystals. Colored formazan crystals were dissolved in 100 μL of DMSO by setting those aside for 1 h to ensure complete dissolution. Cell viability was estimated by measuring absorbance at 540 nm using microplate reader and percentage growth inhibition was calculated.

[2] = tested on: Leishmania tropica kwh 23 promastigotes; assay: ROS mediated antileishmanial activity (NaN3 / mannitol scavengers); assay type: cell-based; details: for Reduction of antileishmanial activity in the presence of NaN3: NaN3 0.1 mM; for Reduction of antileishmanial activity in the presence of mannitol: mannitol 1 mM
Experimental: Leishmania tropica kwh 23 promastigotes were treated in three groups. First group was exposed to samples along with 0.1 mM sodium azide (NaN3), second group to samples with 1 mM mannitol and third group comprised of all controls. In third group, promastigotes were treated in different wells with samples only (sample control), 1% DMSO in PBS only (negative control-I), amphotericin B only (positive control), 0.1 mM NaN3 only (negative control-II) and 1 mM mannitol only (negative control-III). Plates were incubated followed by MTT assay described above.

THP-1 cell line = assay: Cytotoxicity against THP-1 cell line (MTT assay); assay type: cell-based, human; details: 20 μg/mL, 72 h
Experimental: Cytotoxicity of tributyltin (IV) compounds against THP-1 cell line was determined by 3-(4,5-dimethylthiazol-2-yl)-2,5-diphenyl tetrazolium bromide (MTT) assay. THP-1 cells were cultured in complete growth medium comprising RPMI-1640 (pH 7.4) supplemented with 2.2 g/L NaHCO3 and 10% v/v heat inactivated fetal bovine serum (HIFBS). An aliquot of 20 μL of samples in 1% DMSO in PBS and 180 μL of THP-1 cells were mixed in 96-well plate. Cells were added at an assay density of 1 × 10^4 cells/mL whereas sample/standard was added to achieve the final concentration of 20 μg/mL. The plate was incubated at 37 °C for 72 h in humidified 5% carbon dioxide incubator (Panasonic, Japan MCO-18 AC-PE). Vincristine and 1% DMSO in PBS were used as positive and negative controls respectively. After incubation, 20 μL of pre-filter sterilized MTT solution (4 mg/mL in distilled water) was added in plates and incubated for 4 h at 37 °C in CO2 incubator. Later, colored formazan crystals were separated by removing supernatant and dissolved in 100 μL of DMSO. Reaction was allowed to stand for 1 h to ensure complete dissolution and absorbance was measured at 540 nm using microplate reader (Biotech USA, Elx 800).

isolated lymphocytes = assay: Cytotoxicity against isolated lymphocytes (MTT assay); assay type: cell-based, human; details: 24 h
Experimental: Lymphocytes were isolated using previously described protocol with some modifications. Informed consent was obtained from volunteers and procedure was conducted according to international ethical guidelines after gaining approval from the ethical committee of the Quaid-i-Azam University. A volume of 3 mL of blood was obtained from a healthy donor by venipuncture and diluted (1:1) with PBS. It was layered over 2 mL Histopaque-1077 and centrifuged at 800 × g for 20 min. The buffy coat was aspirated into 5 mL of PBS and centrifuged at […] for 4 min to pellet the lymphocytes. The pellet was suspended in 1 mL of RPMI-1640 and cell density was adjusted to get 1 × 10^5 cells/mL. For cytotoxicity determination, 20 μL of samples (20 μg/mL) or vincristine or 1% DMSO in PBS and 180 μL of lymphocyte suspension were incubated in 96-well plate at 37 °C for 24 h in humidified 5% carbon dioxide incubator (Panasonic, Japan MCO-18 AC-PE). Phytohaemagglutinin (PHA) was added in medium to stimulate lymphocyte growth. Afterwards, MTT assay was done as described above. IC50 values were determined using 3-fold dilutions of the samples.

Streptomyces 85E = assay: Protein kinase inhibition assay (Streptomyces disc assay); assay type: cell-based; details: for ZOI CZ (clear zone): (-) shows no ZOI; for ZOI BZ (bald zone): BZ indicative of PK inhibition; for MIC for PK inhibition: minimum inhibitory concentration
Experimental: Protein kinase inhibitory activity of the tributyltin (IV) compounds was measured against Streptomyces 85E strain using previously described protocol. Culture of Streptomyces 85E was refreshed in tryptic soy broth and 100 μL of this was swabbed on sterile ISP4 medium under aseptic conditions. […] Diameter (mm) of zone of inhibition (ZOI) around all samples and controls was measured as clear zone (CZ) and bald zone (BZ). […] BZ is indicative of PK inhibition.

[3] = tested on: Leishmania tropica kwh 23 promastigotes; assay: Photosensitizing effect against leishmania; assay type: cell-based; details: 0.092 μg/mL; for Photosensitizing effect % growth inhibition, Sunlight with IR filter: 15 min; for Photosensitizing effect % growth inhibition, Sunlight: 15 min sunlight
Experimental: Photosensitizing effect of tributyltin (IV) compounds was determined in three parallel groups. Samples and controls were exposed for 15 min to sunlight (168 W/m^2 of sun intensity) or sunlight with IR filter or dark conditions. The relative intensity of sunlight was measured by a CCD spectrometer (Ocean Optics, model HR4000). Later, plates were incubated at 25 °C for 72 h and cell viability was determined by MTT assay as given above. In this assay, samples were tested at concentrations showing less than 55% inhibition in primary antileishmanial assay to exclude false positive.

HepG2 cell line = assay: Cytotoxicity against HepG2 cell line (SRB assay); assay type: cell-based, human; details: 72 h
Experimental: Cytotoxicity was further evaluated against HepG2 cell line by sulforhodamine B (SRB) colorimetric assay. Dulbecco's Modified Eagle Medium (DMEM) supplemented with 10% FBS, 100 μg/mL streptomycin sulfate, 100 IU/mL penicillin G sodium and 0.25 μg/mL amphotericin B was used to culture HepG2 cells in CO2 (5%) incubator (Panasonic, Japan MCO-18 AC-PE) at 37 °C. An aliquot of 20 μL (1% DMSO in PBS) of samples was added to 180 μL of cell culture at an assay density of 1x10^5 cells/mL in 96-well plate. The plate was incubated at 37 °C for 72 h in CO2 incubator. Final concentration of compounds/standard was 20 μg/mL. Doxorubicin and 1% v/v DMSO in PBS ere used as positive and negative controls respectively. An equivalent number of cells in twelve wells of 96-well plate were incubated for 1 h at 37 °C and labeled as day zero control. Later, cells were fixed by adding 50 μL of cold 20% w/v TCA for 1 h at 4 °C. These were washed with tap water, air dried and stained with 50 μL of 0.057% w/v SRB in 1% v/v acetic acid for 30 min at room temperature. Cells were again washed with 1% v/v acetic acid, dried overnight and 200 μL of 10 mM Tris base (pH 10) was used to solubilize the bound dye for 1 h. Absorbance was measured at 515 nm using a microplate reader. Percentage of growth inhibition was calculated as: % inhibition = 100 – [(As – Ao) / (An – Ao) × 100], where, Ao, As and An are absorbance of day zero control, samples and negative control respectively. IC50 values were determined using 3-fold dilutions of the samples.

[4] = tested on: axenic log-phase promastigotes; design: method as in PMID 19546361; details: cited from earlier work
[5] = tested on: cellular metacyclic promastigotes; design: method as in PMID 19546361; details: cited from earlier work

| Structure (SMILES) | mortality at 20 µg/mL ([1]; Leishmania tropica, read-out: Antileishmanial % growth inhibition (mortality, lethality)) [%] | Reduction of antileishmanial activity in the presence of NaN3 [2] [%] | Reduction of antileishmanial activity in the presence of mannitol [2] [%] | THP-1 % growth inhibition (THP-1 cell line) [%] | Antileishmanial % growth inhibition (mortality, lethality) [1] [%] | Antileishmanial LC50 [1] [µg/mL] | Isolated lymphocytes IC50 (isolated lymphocytes) [µg/mL] | ZOI CZ (clear zone) (Streptomyces 85E; 6.25 μg/disc) [mm] | ZOI BZ (bald zone) (Streptomyces 85E; 6.25 μg/disc) [mm] | ZOI CZ (clear zone) (Streptomyces 85E; 50 μg/disc) [mm] | MIC for PK inhibition (Streptomyces 85E) [μg/disc] | Photosensitizing effect % growth inhibition, Control [3] [%] | Photosensitizing effect % growth inhibition, Dark [3] [%] | Photosensitizing effect % growth inhibition, Sunlight with IR filter [3] [%] | Photosensitizing effect % growth inhibition, Sunlight [3] [%] | Isolated lymphocytes % growth inhibition (isolated lymphocytes; 20 μg/mL) | HepG2 % growth inhibition (HepG2 cell line; 20 μg/mL) [%] | HepG2 IC50 (HepG2 cell line; 3-fold dilutions) [µg/mL] | IC50 [4] [µg/mL] | IC50 [5] [µg/mL] |
| --- | --- | --- | --- | --- | --- | --- | --- | --- | --- | --- | --- | --- | --- | --- | --- | --- | --- | --- | --- | --- |
| C[C@@H]1[C@H](O)[C@@H](C)/C=C/C=C/C=C/C=C/C=C/C=C/C=C/[C@H](O[C@@H]2O[C@H](C)[C@@H](O)[C@H](N)[C@@H]2O)C[C@@H]2O[C@](O)(C[C@@H](O)C[C@@H](O)[C@H](O)CC[C@@H](O)C[C@@H](O)CC(=O)O[C@H]1C)C[C@H](O)[C@H]2C(=O)O [Amphotericin B, reference compound] | 100 | 16 | 10 |  |  |  |  |  |  |  |  |  |  |  |  |  |  |  |  |  |
| CCC[CH2][Sn]([CH2]CCC)([CH2]CCC)[O]C(=O)/C=C\C(=O)NC1CCCCC1 [Ch-442, tributylstannyl (Z)-4-(cyclohexylamino)-4-oxobut-2-enoate] |  | 22 | 38.2 | 44.6 ± 1.18 | 95.8 ± 2.16 | 0.088 ± 0.009 | 14.9 ± 0.25 | 10 ± 0.74 | 29 ± 0.78 | 40 ± 1.17 | 0.391 ± 0.006 | 46.1 ± 0.56 | 44.18 ± 1.16 | 49.25 ± 0.63 | 40.5 ± 0.12 |  |  |  |  |  |
| CCC[CH2][Sn]([CH2]CCC)([CH2]CCC)[O]C(=O)/C=C\C(=O)Nc1ccccc1 [Ch-458, tributylstannyl (Z)-4-oxo-4-(phenylamino)but-2-enoate] |  |  |  | 21.2 ± 1.57 | 97.8 ± 1.23 | 0.256 ± 0.064 |  | 12 ± 1.25 | 31 ± 1.37 | 30 ± 1.2 | 0.195 ± 0.001 | 35.2 ± 1.78 | 36.7 ± 0.74 | 30.25 ± 0.17 | 42.7 ± 1.35 | 14.8 ± 0.13ǂ % | 98.7 ± 3.56 | 1.58 ± 0.07 |  |  |
| O.O.O.O.O.O.O.O.O.O=C([O-])[C@@H]1[O][Sb](=[O])([O][Sb]2(=[O])[O][C@H]([C@H](O)CO)[C@H](O)[C@H](C(=O)[O-])[O]2)[O][C@H]([C@H](O)CO)[C@@H]1O.[Na+].[Na+].[Na+] (stereo partly drawn) [sodium stibogluconate] |  |  |  |  |  |  |  |  |  |  |  |  |  |  |  |  |  |  | 64 | 22 |
